Results taken from patent publication US8637501B2, “Azinone-substituted azepino[b]indole and pyrido-pyrrolo-azepine MCH-1 antagonists, methods of making, and use thereof” (Albany Molecular Research, Inc., priority 2009, dated 2014).
Counter-ions that a name gives are not always drawn.

How the values were obtained:
human MCH-1 receptor = human MCH-1 receptor (Homo sapiens (Human), UniProt Q99705); assay: Binding Assay for Human Melanin-Concentrating Hormone (MCH-1) Receptor; conditions: radioligand displacement, membranes from CHO-K1 cells expressing human MCH-1 receptor; Ki from IC50 by Cheng Prusoff equation; read-out: MCH1 Ki
Sequence of human MCH-1 receptor (Q99705 whole entry): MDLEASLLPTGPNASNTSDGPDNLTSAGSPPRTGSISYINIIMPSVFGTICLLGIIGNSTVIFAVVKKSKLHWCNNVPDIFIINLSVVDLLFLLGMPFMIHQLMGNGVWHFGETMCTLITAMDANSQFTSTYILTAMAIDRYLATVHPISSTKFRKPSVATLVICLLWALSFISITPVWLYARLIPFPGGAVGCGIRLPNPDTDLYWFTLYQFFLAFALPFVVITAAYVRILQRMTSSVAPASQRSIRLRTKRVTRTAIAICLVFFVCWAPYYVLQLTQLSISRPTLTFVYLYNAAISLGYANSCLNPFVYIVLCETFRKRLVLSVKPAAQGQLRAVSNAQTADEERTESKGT
Description: Binding Assay for Human Melanin-Concentrating Hormone (MCH-1) Receptor
Evaluation of the affinity of compounds for the human MCH-1 receptor was accomplished using 4-(3,4,5-tritritiumbenzyloxy)-1-(1-(2-(pyrrolidin-1-yl)ethyl)-1H-indazol-5-yl)pyridin-2(1H)-one and membranes prepared from stable CHO-K1 cells expressing the human MCH-1 receptor obtained from Euroscreen (Batch 1138). Cell membrane homogenates (8.92 μg protein) were incubated for 60 min at 25° C. with 1.4 nM of the [^3H]-labeled compound in the absence or presence of the test compound in 50 mM Tris-HCl buffer, pH 7.4. Nonspecific binding was determined in the presence of 50 μM 1-(5-(4-cyanophenyl)bicyclo[3.1.0]hexan-2-yl)-3-(4-fluoro-3-(trifluoromethyl)phenyl)-1-(3-(4-methylpiperazin-1-yl)propyl)urea. Following incubation, the samples were filtered rapidly under vacuum through Skatron 11731 filters, pre-soaked in 0.5% polyethylenimine, and washed with ice-cold 50 mM Tris-HCl buffer, pH 7.4, (wash setting 9,9,0) using a Skatron cell harvester. The filters were counted for radioactivity in a liquid scintillation counter (Tri-Carb 2100TR, Packard) using a scintillation cocktail (Ultima Gold MV, Perkin Elmer).
The results are expressed as a percent inhibition of the control radioligand specific binding. The IC50 value (concentration causing a half-maximal inhibition of control specific binding) and Hill coefficient (nH) were determined by non-linear regression analysis of the competition curve using Hill equation curve fitting. The inhibition constant (Ki) was calculated from the Cheng Prusoff equation: (Ki=IC50/(1+(L/KD)), where L=concentration of radioligand in the assay, and KD=affinity of the radioligand for the receptor.

O=c1cc(-c2ccc(C(F)(F)F)cn2)ccn1-c1ccc2c3c([nH]c2c1)CCNCC3 (as salt: hydrochloride) [Example 9, 1-(1,2,3,4,5,6-Hexahydroazepino[4,5-b]indol-8-yl)-4-(5-(trifluoromethyl)pyridin-2-yl)pyridin-2(1H)-one dihydrochloride]
melting point: 288 to 290 °C

Cl.Cn1c2c(c3ccc(-n4ccc(OCc5ccc(Cl)cn5)cc4=O)cc31)CNCCC2 [Example 63, 4-((5-Chloropyridin-2-yl)methoxy)-1-(6-methyl-1,2,3,4,5,6-hexahydroazepino[4,3-b]indol-8-yl)pyridin-2(1H)-one hydrochloride]
melting point: 260 to 266 °C
Ki (human MCH-1 receptor): 5 nM

Cl.Cn1c2c(c3ccc(-n4ccc(OCc5ccc(F)cn5)cc4=O)cc31)CCCNC2 [Example 19, 4-((5-Fluoropyridin-2-yl)methoxy)-1-(10-methyl-1,2,3,4,5,10-hexahydroazepino[3,4-b]indol-8-yl)pyridin 2(1H)-one hydrochloride]
melting point: 268 to 275 °C (dec.)
Ki (human MCH-1 receptor): 14.8 nM

Cl.Cn1c2c(c3ccc(-n4ccc(OCc5ncc(Cl)cc5Cl)cc4=O)cc31)CCNCC2 [Example 56, 4-((3,5-Dichloropyridin-2-yl)methoxy)-1-(6-methyl-1,2,3,4,5,6-hexahydroazepino[4,5-b]indol-8-yl)pyridin-2(1H)-one hydrochloride]
melting point: 178 to 180 °C
Ki (human MCH-1 receptor): 27 nM

Cl.Cn1c2c(c3ccc(-n4ccc(OCc5ccc(F)cn5)cc4=O)cc31)CCNCC2 [Example 40]
melting point: 194 to 202 °C (dec.)

Cl.Cn1c2c(c3ccc(-n4ccc(OCc5ccc(F)cc5F)cc4=O)cc31)CNCCC2 [Example 66, 4-(2,4-Difluorobenzyloxy)-1-(6-methyl-1,2,3,4,5,6-hexahydroazepino[4,3-b]indol-8-yl)pyridin-2(1H)-one hydrochloride]
melting point: 272 to 280 °C
Ki (human MCH-1 receptor): 7.3 nM

Cn1c2c(c3ccc(-n4ccc(OCc5ccc(C(F)(F)F)nc5)cc4=O)cc31)CCNCC2 (as salt: hydrochloride) [Example 5, 1-(6-Methyl-1,2,3,4,5,6-hexahydroazepino[4,5-b]indol-8-yl)-4-((6-(trifluoromethyl)pyridin-3-yl)methoxy)pyridin-2(1H)-one dihydrochloride]
melting point: 296 to 300 °C

CC(=O)N1CCc2c(n(C)c3cc(-n4ccc(OCc5ccc(F)cn5)cc4=O)ccc23)CC1.Cl [Example 48, 1-(3-Acetyl-6-methyl-1,2,3,4,5,6-hexahydroazepino[4,5-b]indol-8-yl)-4-((5-fluoropyridin-2-yl)methoxy)pyridin-2(1H)-one]
melting point: 88 to 94 °C
Ki (human MCH-1 receptor): 60 nM

Cn1c2c(c3ccc(-n4ccc(OCc5ccccc5)cc4=O)cc31)C(=O)NCCC2 [Example 38]
melting point: 178 to 181 °C
Ki (human MCH-1 receptor): 100 nM

Cn1c2c(c3ccc(-n4ncc(OCc5ccc(F)cn5)cc4=O)cc31)CCNCC2 (as salt: hydrochloride) [Example 10, 5-((5-Fluoropyridin-2-yl)methoxy)-2-(6-methyl-1,2,3,4,5,6-hexahydroazepino[4,5-b]indol-8-yl)pyridazin-3(2H)-one dihydrochloride]
melting point: 250 to 254 °C

Cl.Cn1c2c(c3ccc(-n4ccc(-c5ccc(C(F)(F)F)cc5)cc4=O)cc31)CCNCC2 [Example 41]
melting point: 306 to 310 °C (dec.)

Cl.Cn1c2c(c3ccc(-n4ccc(-c5ccc(C(F)(F)F)cn5)cc4=O)cc31)CCCNC2 [Example 20]
melting point: 288 to 296 °C (dec.)

Cl.Cn1c2c(c3ccc(-n4ccc(-c5ccc(C(F)(F)F)cc5)cc4=O)cc31)CNCCC2 [Example 26]
melting point: 264 to 270 °C (dec.)

Cn1c2c(c3ccc(-n4ccc(OCc5ccc(Cl)cc5F)cc4=O)cc31)CCNCC2 [Example 55, 4-(4-Chloro-2-fluorobenzyloxy)-1-(6-methyl-1,2,3,4,5,6-hexahydroazepino[4,5-b]indol-8-yl)pyridin-2(1H)-one hydrochloride]
Ki (human MCH-1 receptor): 12 nM

Cn1c2c(c3ccc(-n4ccc(-c5ccc(C(F)(F)F)cn5)cc4=O)cc31)CCNCC2 (as salt: hydrochloride) [Example 3, 1-(6-Methyl-1,2,3,4,5,6-hexahydroazepino[4,5-b]indol-8-yl)-4-(5-(trifluoromethyl)pyridin-2-yl)pyridin-2(1H)-one dihydrochloride]
melting point: 310 to 312 °C

Cc1ccc(COc2ccn(-c3ccc4c5c(n(C)c4c3)CCNCC5)c(=O)c2)cn1 [Example 45, 1-(6-Methyl-1,2,3,4,5,6-hexahydroazepino[4,5-b]indol-8-yl)-4-((6-methylpyridin-3-yl)methoxy)pyridin-2(1H)-one dihydrochloride]
Ki (human MCH-1 receptor): 26 nM

Cn1c2c(c3ccc(-n4ccc(OCc5ccc(C(F)(F)F)nc5)cc4=O)cc31)CNCCC2 [Example 24, 1-(6-Methyl-1,2,3,4,5,6-hexahydroazepino[4,3-b]indol-8-yl)-4-((6-(trifluoromethyl)pyridin-3-yl)methoxy)pyridin-2(1H)-one hydrochloride]
Ki (human MCH-1 receptor): 6.4 nM

Cn1c2c(c3ccc(-n4ccc(OCc5ccc(Cl)cn5)cc4=O)nc31)CCNCC2 [Example 85, 4-((5-Chloropyridin-2-yl)methoxy)-1-(10-methyl-5,6,7,8,9,10-hexahydropyrido[3′,2′:4,5]pyrrolo[2,3-d]azepin-2-yl)pyridin-2(1H)-one hydrochloride]
Ki (human MCH-1 receptor): 11 nM

Cn1c2c(c3ccc(-n4ccc(OCc5ccc(Cl)cc5F)cc4=O)nc31)CCNCC2 [Example 84, 4-(4-Chloro-2-fluorobenzyloxy)-1-(10-methyl-5,6,7,8,9,10-hexahydropyrido[3′,2′:4,5]pyrrolo[2,3-d]azepin-2-yl)pyridin-2(1H)-one hydrochloride]
Ki (human MCH-1 receptor): 11 nM

Cn1c2c(c3ccc(-n4ccc(OCc5ccc(C(F)(F)F)nc5)cc4=O)cc31)CCNCC2 [Example 5, 1-(6-Methyl-1,2,3,4,5,6-hexahydroazepino[4,5-b]indol-8-yl)-4-((6-(trifluoromethyl)pyridin-3-yl)methoxy)pyridin-2(1H)-one dihydrochloride]
Ki (human MCH-1 receptor): 11.8 nM

Cn1c2c(c3ccc(-n4ccc(-c5cnc(C(F)(F)F)nc5)cc4=O)cc31)CNCCC2 [Example 25, 1-(6-Methyl-1,2,3,4,5,6-hexahydroazepino[4,3-b]indol-8-yl)-4-(2-(trifluoromethyl)pyrimdin-5-yl)pyridin-2(1H)-one hydrochloride]
Ki (human MCH-1 receptor): 42.3 nM

O=c1cc(OCc2ccccc2)ccn1-c1ccc2c3c([nH]c2c1)CCCNC3 [Example 35, 4-(Benzyloxy)-1-(1,2,3,4,5,6-hexahydroazepino[4,3-b]indol-8-yl)pyridin-2(1H)-one hydrochloride]
Ki (human MCH-1 receptor): 5.8 nM

CN1CCCc2c(c3ccc(-n4ccc(OCc5ccccc5)cc4=O)cc3n2C)C1 [Example 29, 4-(Benzyloxy)-1-(2,6-dimethyl-1,2,3,4,5,6-hexahydroazepino[4,3-b]indol-8-yl)pyridin-2(1H)-one hydrochloride]
Ki (human MCH-1 receptor): 5 nM

O=c1cc(-c2ccc(C(F)(F)F)cc2)ccn1-c1ccc2c3c([nH]c2c1)CCNCC3 [Example 12, 1-(1,2,3,4,5,6-Hexahydroazepino[4,5-b]indol-8-yl)-4-(4-(trifluoromethyl)phenyl)pyridin-2(1H)-one hydrochloride]
Ki (human MCH-1 receptor): 11.4 nM

Cn1c2c(c3ccc(-n4ncc(OCc5ccc(C(F)(F)F)nc5)cc4=O)cc31)CNCCC2 [Example 60, 2-(6-Methyl-1,2,3,4,5,6-hexahydroazepino[4,3-b]indol-8-yl)-5-((6-(trifluoromethyl)pyridin-3-yl)methoxy)pyridazin-3(2H)-one hydrochloride]
Ki (human MCH-1 receptor): 21 nM

Cn1c2c(c3ccc(-n4ccc(-c5ccc(C(F)(F)F)nc5)nc4=O)cc31)CCNCC2 [Example 58, 1-(6-Methyl-1,2,3,4,5,6-hexahydroazepino[4,5-b]indol-8-yl)-4-(6-(trifluoromethyl)pyridin-3-yl)pyrimidin-2(1H)-one hydrochloride]
Ki (human MCH-1 receptor): 163 nM

Cn1c2c(c3ccc(-n4ccc(OCc5ncc(F)cc5F)cc4=O)nc31)CCNCC2 [Example 111, 4-((3,5-Difluoropyridin-2-yl)methoxy)-1-(10-methyl-5,6,7,8,9,10-hexahydropyrido[3′,2′:4,5]pyrrolo[2,3-d]azepin-2-yl)pyridin-2(1H)-one hydrochloride]
Ki (human MCH-1 receptor): 71 nM

Cn1c2c(c3ccc(-n4ccc(OCc5ccc(Cl)cc5Cl)cc4=O)nc31)CNCCC2 [Example 93, 4-(2,4-Dichlorobenzyloxy)-1-(10-methyl-5,6,7,8,9,10-hexahydropyrido[3′,2′:4,5]pyrrolo[3,2-c]azepin-2-yl)pyridin-2(1H)-one hydrochloride]
Ki (human MCH-1 receptor): 26 nM

CN1CCc2c(n(C)c3nc(-n4ccc(OCc5ccccc5)cc4=O)ccc23)CC1 [Example 88, 4-(Benzyloxy)-1-(7,10-dimethyl-5,6,7,8,9,10-hexahydropyrido[3′,2′:4,5]pyrrolo[2,3-d]azepin-2-yl)pyridin-2(1H)-one hydrochloride]
Ki (human MCH-1 receptor): 8.7 nM
